{"source": "patent US20150366836A1", "about": "“METHOD AND PHARMACEUTICAL COMPOSITION FOR TREATING COLORECTAL CANCER” (National Dong Hua University, priority 2014, published 2015)", "key": {"[1]": {"system": "mouse bearing inflammatory bowel disease (IBD), AOM/DSS induced", "assay": "Mouse model bearing IBD (AOM/DSS induced), body weight and H&E staining of intestine", "format": "in vivo, C57/BL6 mice", "description": "The animal experiments were approved by the National Dong-Hwa University Animal Ethics Committee and the experimental protocols were used according to the “Guide for the Care and Use of Laboratory Animals” of National Dong-Hwa University. On day 0, C57/BL6 mice (6-8 weeks old) were weighted and injected (intraperitoneal; i.p.) with 10 mg/kg body weight of azoxymethane (AOM) and then fed with 2% Dextran sodium sulfate solution (DSS solution) via water every day for 7 days. On day 8, the 2% DSS solution was changed to normal water for another 7 days. The cycle of DSS solution and water was repeated and the induction procedure was completed on day 35.\nAfter the establishment of IBD in the experimental mice (on day 35), the mice were injected (i.p.) with 5-FU (15 mg/kg body weight) or HCD (0.64, 1.6, or 6.4 mg/kg body weight) once every three days for additional 30 days. Then, the mice were sacrificed. The colon, spleen, liver, and kidney thereof were immediately removed, observed, and further examined by H&E staining."}, "Caco2 cells [2]": {"system": "Caco2 cells", "assay": "MTT assay cell viability, Caco2 cells", "format": "cell-based", "details": "Homo sapiens, Caco-2; Caco2 cells, 48 hr treatment", "description": "(§1) Two cell lines were used in this study, Caco2 cells and HT-29 cells. Both of them are colorectal cancer cells. Caco2 cells and HT-29 cells were maintained in DMEM (or RPMI) supplemented with 20% or 10% fetal bovine serum (FBS; GIBCO), pH 7.4 at 37° C. with continuous circulation of 5% CO2 incubator. The medium was changed every 2 days and the cells were trypsinized using trypsin/EDTA when reaching 80%-90% confluence.\n(§2) In this example, the effects of HCD, PG, and 5-FU on the viability of Caco2 cells and HT-29 cells were examined. The MTT assay was employed for this purpose. The MTT (3-(4-,5-dimethylthiazol-2-yl)-2,5-diphenyltetrazolium bromide) assay is a common colorimetric method in the field for cell viability analysis. MTT (yellow tetrazolium salt) is reduced to a purple formazan by living cells and detection to the purple formazan can be calculated as the cell viability.\n(§3) Briefly, cells (Caco2 or HT-29) were seeded in 96-well plate (7×10^3 cell per well) and incubated overnight (37° C., 5% CO2).\n(§4) On the other hand, in the pretreatment analysis, cells (Caco2 or HT-29) were seeded in 96-well plate (7×10^3 cell per well) and incubated overnight (37° C., 5% CO2). In according to the treatments listed in the Table 1, Cells were pre-treated by HCD or PG for 6, 12, 24, 36, or 48 hr and then were treated by 5-FU for additional 24 hr."}, "HT-29 cells [3]": {"system": "HT-29 cells", "assay": "Cell cycle analysis by flow cytometer (PI staining), HT-29 cells", "format": "cell-based", "description": "(§5) The results of Example 2 in cell viability hinted the effects of HCD, PG, and 5-FU on arresting cell cycle. In this example, the phase of cell cycle of Caco2 and HT-29 cells after the treatment listed in Table 1 was determined by flow cytometer. Briefly, 7×10^4 cells per well were inoculated in 12-wells plate and incubated overnight at 37° C., 5% CO2. Then, cells were treated according to the treatment listed in Table 1 by indicated time period. After treatment, cells were harvested by trypsin and fixed with 70% ethanol at −20° C. for at least 3 hr. The cells were washed in cold PBS twice and then incubated with 1 mL (v/v) staining solution (20 μg/mL propidium iodide (PI), 0.1% Triton X-100, 0.2 mg/mL Rnase) at 37° C. for 30 minutes. Lastly, cells were analyzed by flow cytometer (Cytomics™ FC500, Backman, Fullerton, Calif., USA). Data from 10,000 cells were collected for each experimental group."}, "HT-29 cells [4]": {"system": "HT-29 cells", "assay": "MTT assay cell viability, HT-29 cells", "format": "cell-based", "details": "Homo sapiens; HT-29 cells, 36 hr treatment", "description": "as §1, §2, §3, §4"}, "Caco2 cells [5]": {"system": "Caco2 cells", "assay": "Cell cycle analysis by flow cytometer (PI staining), Caco2 cells", "format": "cell-based", "description": "as §5"}}}
{"compound": "O=c1[nH]cc(F)c(=O)[nH]1", "note": "[5-FU, 5-Fluorouracil]", "values": [{"measurement": "intestine villus arrangement (H&E staining)", "setting": "[1]; 15 mg/kg body weight i.p.", "value": "irregular arrangement of villus"}, {"measurement": "lymph node (H&E staining)", "setting": "[1]; 15 mg/kg body weight i.p.", "value": "enlarged"}, {"measurement": "body weight", "setting": "[1]; 15 mg/kg body weight i.p. once every three days, 30 days", "value": "initially reduced"}, {"measurement": "IC50", "setting": "Caco2 cells [2]", "value": 100, "unit": "µM"}, {"measurement": "cell cycle arrest at sub-G1 phase vs control (in words)", "setting": "HT-29 cells [3]; HT-29", "value": "increased cell cycle arrest at sub-G1 phase"}, {"measurement": "G0/G1 (%)", "setting": "HT-29 cells [3]; HT-29, 0.5 μM, 24 hr", "value": "40.05 ± 0.35", "unit": "%"}, {"measurement": "G2/M (%)", "setting": "HT-29 cells [3]; HT-29, 0.5 μM, 24 hr", "value": "17.45 ± 3.04", "unit": "%"}, {"measurement": "S (%)", "setting": "HT-29 cells [3]; HT-29, 0.5 μM, 24 hr", "value": "28.65 ± 1.20", "unit": "%"}, {"measurement": "Sub G1 (%)", "setting": "HT-29 cells [3]; HT-29, 0.5 μM, 24 hr", "value": "6.75 ± 0.35", "unit": "%"}, {"measurement": "G0/G1 (%)", "setting": "HT-29 cells [3]; HT-29, 0.5 μM, 36 hr", "value": "46.15 ± 1.34", "unit": "%"}, {"measurement": "G2/M (%)", "setting": "HT-29 cells [3]; HT-29, 0.5 μM, 36 hr", "value": "8.65 ± 1.48", "unit": "%"}, {"measurement": "S (%)", "setting": "HT-29 cells [3]; HT-29, 0.5 μM, 36 hr", "value": "20.05 ± 1.91", "unit": "%"}, {"measurement": "Sub G1 (%)", "setting": "HT-29 cells [3]; HT-29, 0.5 μM, 36 hr", "value": "21.8 ± 5.09", "unit": "%"}, {"measurement": "G0/G1 (%)", "setting": "HT-29 cells [3]; HT-29, 2 μM, 24 hr", "value": "50.3 ± 0.85", "unit": "%"}, {"measurement": "G2/M (%)", "setting": "HT-29 cells [3]; HT-29, 2 μM, 24 hr", "value": "9.15 ± 0.78", "unit": "%"}, {"measurement": "S (%)", "setting": "HT-29 cells [3]; HT-29, 2 μM, 24 hr", "value": "26.15 ± 1.77", "unit": "%"}, {"measurement": "Sub G1 (%)", "setting": "HT-29 cells [3]; HT-29, 2 μM, 24 hr", "value": "7.75 ± 0.21", "unit": "%"}, {"measurement": "G0/G1 (%)", "setting": "HT-29 cells [3]; HT-29, 2 μM, 36 hr", "value": "36.65 ± 1.06", "unit": "%"}, {"measurement": "G2/M (%)", "setting": "HT-29 cells [3]; HT-29, 2 μM, 36 hr", "value": "1.85 ± 0.5", "unit": "%"}, {"measurement": "S (%)", "setting": "HT-29 cells [3]; HT-29, 2 μM, 36 hr", "value": "17.1 ± 2.12", "unit": "%"}, {"measurement": "Sub G1 (%)", "setting": "HT-29 cells [3]; HT-29, 2 μM, 36 hr", "value": "40.1 ± 1.69", "unit": "%"}, {"measurement": "G0/G1 (%)", "setting": "HT-29 cells [3]; HT-29, 5 μM, 24 hr", "value": "56.65 ± 6.01", "unit": "%"}, {"measurement": "G2/M (%)", "setting": "HT-29 cells [3]; HT-29, 5 μM, 24 hr", "value": "9.4 ± 3.68", "unit": "%"}, {"measurement": "S (%)", "setting": "HT-29 cells [3]; HT-29, 5 μM, 24 hr", "value": "21.45 ± 2.33", "unit": "%"}, {"measurement": "Sub G1 (%)", "setting": "HT-29 cells [3]; HT-29, 5 μM, 24 hr", "value": "6.85 ± 0.64", "unit": "%"}, {"measurement": "G0/G1 (%)", "setting": "HT-29 cells [3]; HT-29, 5 μM, 36 hr", "value": "39.1 ± 5.66", "unit": "%"}, {"measurement": "G2/M (%)", "setting": "HT-29 cells [3]; HT-29, 5 μM, 36 hr", "value": "1.05 ± 0.21", "unit": "%"}, {"measurement": "S (%)", "setting": "HT-29 cells [3]; HT-29, 5 μM, 36 hr", "value": "12.5 ± 0.71", "unit": "%"}, {"measurement": "Sub G1 (%)", "setting": "HT-29 cells [3]; HT-29, 5 μM, 36 hr", "value": "42.6 ± 5.37", "unit": "%"}, {"measurement": "IC50", "setting": "HT-29 cells [4]", "value": 50, "unit": "µM"}, {"measurement": "cell cycle arrest at sub-G1 phase vs control (in words)", "setting": "Caco2 cells [5]; Caco2", "value": "increased cell cycle arrest at sub-G1 phase"}, {"measurement": "G0/G1 (%)", "setting": "Caco2 cells [5]; Caco2, 0.5 μM, 36 hr", "value": "46.15 ± 1.34", "unit": "%"}, {"measurement": "G2/M (%)", "setting": "Caco2 cells [5]; Caco2, 0.5 μM, 36 hr", "value": "8.65 ± 1.48", "unit": "%"}, {"measurement": "S (%)", "setting": "Caco2 cells [5]; Caco2, 0.5 μM, 36 hr", "value": "20.05 ± 1.91", "unit": "%"}, {"measurement": "Sub G1 (%)", "setting": "Caco2 cells [5]; Caco2, 0.5 μM, 36 hr", "value": "21.8 ± 5.09", "unit": "%"}, {"measurement": "G0/G1 (%)", "setting": "Caco2 cells [5]; Caco2, 0.5 μM, 48 hr", "value": "46.15 ± 1.34", "unit": "%"}, {"measurement": "G2/M (%)", "setting": "Caco2 cells [5]; Caco2, 0.5 μM, 48 hr", "value": "1.5 ± 0.14", "unit": "%"}, {"measurement": "S (%)", "setting": "Caco2 cells [5]; Caco2, 0.5 μM, 48 hr", "value": "13.65 ± 1.34", "unit": "%"}, {"measurement": "Sub G1 (%)", "setting": "Caco2 cells [5]; Caco2, 0.5 μM, 48 hr", "value": "20.9 ± 3.25", "unit": "%"}, {"measurement": "G0/G1 (%)", "setting": "Caco2 cells [5]; Caco2, 2 μM, 36 hr", "value": "36.65 ± 1.06", "unit": "%"}, {"measurement": "G2/M (%)", "setting": "Caco2 cells [5]; Caco2, 2 μM, 36 hr", "value": "1.85 ± 0.5", "unit": "%"}, {"measurement": "S (%)", "setting": "Caco2 cells [5]; Caco2, 2 μM, 36 hr", "value": "17.1 ± 2.12", "unit": "%"}, {"measurement": "Sub G1 (%)", "setting": "Caco2 cells [5]; Caco2, 2 μM, 36 hr", "value": "40.1 ± 1.69", "unit": "%"}, {"measurement": "G0/G1 (%)", "setting": "Caco2 cells [5]; Caco2, 2 μM, 48 hr", "value": "35.35 ± 2.47", "unit": "%"}, {"measurement": "G2/M (%)", "setting": "Caco2 cells [5]; Caco2, 2 μM, 48 hr", "value": "3.55 ± 3.89", "unit": "%"}, {"measurement": "S (%)", "setting": "Caco2 cells [5]; Caco2, 2 μM, 48 hr", "value": "18.05 ± 10.11", "unit": "%"}, {"measurement": "Sub G1 (%)", "setting": "Caco2 cells [5]; Caco2, 2 μM, 48 hr", "value": "37.55 ± 14.64", "unit": "%"}, {"measurement": "G0/G1 (%)", "setting": "Caco2 cells [5]; Caco2, 5 μM, 36 hr", "value": "39.1 ± 5.66", "unit": "%"}, {"measurement": "G2/M (%)", "setting": "Caco2 cells [5]; Caco2, 5 μM, 36 hr", "value": "1.05 ± 0.21", "unit": "%"}, {"measurement": "S (%)", "setting": "Caco2 cells [5]; Caco2, 5 μM, 36 hr", "value": "12.5 ± 0.71", "unit": "%"}, {"measurement": "Sub G1 (%)", "setting": "Caco2 cells [5]; Caco2, 5 μM, 36 hr", "value": "42.6 ± 5.37", "unit": "%"}, {"measurement": "G0/G1 (%)", "setting": "Caco2 cells [5]; Caco2, 5 μM, 48 hr", "value": "36.7 ± 8.06", "unit": "%"}, {"measurement": "G2/M (%)", "setting": "Caco2 cells [5]; Caco2, 5 μM, 48 hr", "value": "2.7 ± 2.95", "unit": "%"}, {"measurement": "S (%)", "setting": "Caco2 cells [5]; Caco2, 5 μM, 48 hr", "value": "17.5 ± 10.47", "unit": "%"}, {"measurement": "Sub G1 (%)", "setting": "Caco2 cells [5]; Caco2, 5 μM, 48 hr", "value": "38.3 ± 24.47", "unit": "%"}]}
